Data on one compound can be found in BindingDB's records for doi:10.1016/j.bmcl.2007.04.110 (Vernalis (R&D), 2007).

The target in this test is Cyclin-A2/Cyclin-dependent kinase 2 (Homo sapiens, UniProt P24941). Kind of test: CDK Inhibition Assay. The note with it: pH 7.5; 22 °C. The procedure:
In vitro kinase assay using purified CDK2/Cyclin A was incubated at room temperature with substrate, and test compounds in the presence of 100 uM ATP/ [gamma-33P] ATP. Assays were performed in 96-well polypropylene plates. 33P incorporation into substrate was measured using a scintillation counter.

Usually IC50 stands for the midpoint of a concentration-inhibition curve. Read a high IC50 as weaker potency. Compound `NS(=O)(=O)c1ccc(-c2ccc(/C=c3\sc4nc5ccccc5n4c3=O)o2)cc1` [4-(5-{[(4Z)-3-oxo-5-thia-2,7-diazatricyclo[6.4.0.0^{2,6}]dodeca-1(12),6,8,10-tetraen-4-ylidene]methyl}furan-2-yl)benzene-1-sulfonamide] had an IC50 of 760 nM.
